# Data taken from patent US20050169948A1, “Method and compositions for treatment of acne vulgaris and acne rosacea” (priority 2004, published 2005).
# Key:
# [1] = system: acne vulgaris or acne rosacea; assay: Clinical studies of topical formulations in acne patients, compared to placebo or to nicotinamide alone; type: in vivo, human; details: over one thousand acne patients
# [2] = system: skin; details: concentrations 1.0% to 10%
structure (smiles),measurement,setting,value
NC(=O)c1cccnc1 [nicotinamide],efficacy in treating acne vulgaris or acne rosacea compared to placebo,[1],modestly effective
O=C(O)c1cccnc1 [nicotinic acid],irritation on continuous or regular topical application,[2],too irritating
